Key:
Conditions in all cases: Compound concentration 10 µM
[1] = biological target: T1, D(4) dopamine receptor (Homo sapiens) (UniProt P21917)
T1 sequence (whole entry): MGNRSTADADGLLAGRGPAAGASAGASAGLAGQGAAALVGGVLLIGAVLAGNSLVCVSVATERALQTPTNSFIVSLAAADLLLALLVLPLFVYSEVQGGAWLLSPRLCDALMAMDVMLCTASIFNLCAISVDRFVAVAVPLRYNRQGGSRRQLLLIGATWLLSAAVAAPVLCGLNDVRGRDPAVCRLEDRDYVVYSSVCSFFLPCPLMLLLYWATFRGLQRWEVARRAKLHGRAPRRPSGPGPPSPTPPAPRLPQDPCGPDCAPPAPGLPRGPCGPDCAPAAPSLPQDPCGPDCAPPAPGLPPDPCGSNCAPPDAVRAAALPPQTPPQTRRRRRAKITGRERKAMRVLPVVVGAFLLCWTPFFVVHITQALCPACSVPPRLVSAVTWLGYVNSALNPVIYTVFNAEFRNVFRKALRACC
Description: PDSP Primary Binding target: DRD4 - Compounds are tested at 10 uM concentration, plate are incubated at room temperature in the dark for 90 minutes. Reaction are stopped by vacuum filtration onto 0.3% polyethyleneimine soaked filter mats using Filtermate harvester. Scintilation cocktail is then melted onto microwave-dried filters on a hot plate and the radio activity is counted in Microbia counter.

[2] = biological target: Sodium-dependent dopamine transporter (Homo sapiens) (UniProt Q01959)
Description: PDSP Primary Binding target: SLC6A3 - Compounds are tested at 10 uM concentration, plate are incubated at room temperature in the dark for 90 minutes. Reaction are stopped by vacuum filtration onto 0.3% polyethyleneimine soaked filter mats using Filtermate harvester. Scintilation cocktail is then melted onto microwave-dried filters on a hot plate and the radio activity is counted in Microbia counter.

[3] = biological target: Beta-3 adrenergic receptor (Homo sapiens) (UniProt P13945)
Description: PDSP Primary Binding target: ADRB3 - Compounds are tested at 10 uM concentration, plate are incubated at room temperature in the dark for 90 minutes. Reaction are stopped by vacuum filtration onto 0.3% polyethyleneimine soaked filter mats using Filtermate harvester. Scintilation cocktail is then melted onto microwave-dried filters on a hot plate and the radio activity is counted in Microbia counter.

[4] = biological target: 5-hydroxytryptamine receptor 2A (Homo sapiens) (UniProt P28223)
Description: PDSP Primary Binding target: HTR2A - Compounds are tested at 10 uM concentration, plate are incubated at room temperature in the dark for 90 minutes. Reaction are stopped by vacuum filtration onto 0.3% polyethyleneimine soaked filter mats using Filtermate harvester. Scintilation cocktail is then melted onto microwave-dried filters on a hot plate and the radio activity is counted in Microbia counter.

[5] = biological target: T2, 5-hydroxytryptamine receptor 3A (Homo sapiens) (UniProt P46098)
T2 sequence (whole entry): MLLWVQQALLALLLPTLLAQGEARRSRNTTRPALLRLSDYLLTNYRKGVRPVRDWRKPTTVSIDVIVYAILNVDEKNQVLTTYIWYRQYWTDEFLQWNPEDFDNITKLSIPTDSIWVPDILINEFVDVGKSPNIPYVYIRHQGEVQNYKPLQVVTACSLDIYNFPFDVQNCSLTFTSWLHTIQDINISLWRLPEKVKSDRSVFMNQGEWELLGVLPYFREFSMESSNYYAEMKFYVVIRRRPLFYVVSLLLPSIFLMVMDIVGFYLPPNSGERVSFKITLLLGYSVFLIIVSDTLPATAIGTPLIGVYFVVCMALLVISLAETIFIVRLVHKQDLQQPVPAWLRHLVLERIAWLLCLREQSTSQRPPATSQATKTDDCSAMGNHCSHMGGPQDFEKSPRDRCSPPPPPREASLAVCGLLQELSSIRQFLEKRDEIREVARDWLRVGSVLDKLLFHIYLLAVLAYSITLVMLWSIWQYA
Description: PDSP Primary Binding target: HTR3A - Compounds are tested at 10 uM concentration, plate are incubated at room temperature in the dark for 90 minutes. Reaction are stopped by vacuum filtration onto 0.3% polyethyleneimine soaked filter mats using Filtermate harvester. Scintilation cocktail is then melted onto microwave-dried filters on a hot plate and the radio activity is counted in Microbia counter.

[6] = biological target: 5-hydroxytryptamine receptor 7 (Homo sapiens) (UniProt P34969)
Description: PDSP Primary Binding target: HTR7 - Compounds are tested at 10 uM concentration, plate are incubated at room temperature in the dark for 90 minutes. Reaction are stopped by vacuum filtration onto 0.3% polyethyleneimine soaked filter mats using Filtermate harvester. Scintilation cocktail is then melted onto microwave-dried filters on a hot plate and the radio activity is counted in Microbia counter.

[7] = biological target: D(1B) dopamine receptor (Homo sapiens) (UniProt P21918)
Description: PDSP Primary Binding target: DRD5 - Compounds are tested at 10 uM concentration, plate are incubated at room temperature in the dark for 90 minutes. Reaction are stopped by vacuum filtration onto 0.3% polyethyleneimine soaked filter mats using Filtermate harvester. Scintilation cocktail is then melted onto microwave-dried filters on a hot plate and the radio activity is counted in Microbia counter.

[8] = biological target: Beta-1 adrenergic receptor (Homo sapiens) (UniProt P08588)
Description: PDSP Primary Binding target: ADRB1 - Compounds are tested at 10 uM concentration, plate are incubated at room temperature in the dark for 90 minutes. Reaction are stopped by vacuum filtration onto 0.3% polyethyleneimine soaked filter mats using Filtermate harvester. Scintilation cocktail is then melted onto microwave-dried filters on a hot plate and the radio activity is counted in Microbia counter.

[9] = biological target: 5-hydroxytryptamine receptor 1E (Homo sapiens) (UniProt P28566)
Description: PDSP Primary Binding target: HTR1E - Compounds are tested at 10 uM concentration, plate are incubated at room temperature in the dark for 90 minutes. Reaction are stopped by vacuum filtration onto 0.3% polyethyleneimine soaked filter mats using Filtermate harvester. Scintilation cocktail is then melted onto microwave-dried filters on a hot plate and the radio activity is counted in Microbia counter.

[10] = biological target: D(2) dopamine receptor (Homo sapiens) (UniProt P14416)
Description: PDSP Primary Binding target: DRD2 - Compounds are tested at 10 uM concentration, plate are incubated at room temperature in the dark for 90 minutes. Reaction are stopped by vacuum filtration onto 0.3% polyethyleneimine soaked filter mats using Filtermate harvester. Scintilation cocktail is then melted onto microwave-dried filters on a hot plate and the radio activity is counted in Microbia counter.

[11] = biological target: 5-hydroxytryptamine receptor 6 (Homo sapiens) (UniProt P50406)
Description: PDSP Primary Binding target: HTR6 - Compounds are tested at 10 uM concentration, plate are incubated at room temperature in the dark for 90 minutes. Reaction are stopped by vacuum filtration onto 0.3% polyethyleneimine soaked filter mats using Filtermate harvester. Scintilation cocktail is then melted onto microwave-dried filters on a hot plate and the radio activity is counted in Microbia counter.

[12] = biological target: 5-hydroxytryptamine receptor 2B (Homo sapiens) (UniProt P41595)
Description: PDSP Primary Binding target: HTR2B - Compounds are tested at 10 uM concentration, plate are incubated at room temperature in the dark for 90 minutes. Reaction are stopped by vacuum filtration onto 0.3% polyethyleneimine soaked filter mats using Filtermate harvester. Scintilation cocktail is then melted onto microwave-dried filters on a hot plate and the radio activity is counted in Microbia counter.

[13] = biological target: Histamine H2 receptor (Homo sapiens) (UniProt P25021)
Description: PDSP Primary Binding target: HRH2 - Compounds are tested at 10 uM concentration, plate are incubated at room temperature in the dark for 90 minutes. Reaction are stopped by vacuum filtration onto 0.3% polyethyleneimine soaked filter mats using Filtermate harvester. Scintilation cocktail is then melted onto microwave-dried filters on a hot plate and the radio activity is counted in Microbia counter.

[14] = biological target: T3, 5-hydroxytryptamine receptor 2C (Homo sapiens) (UniProt P28335)
T3 sequence (whole entry): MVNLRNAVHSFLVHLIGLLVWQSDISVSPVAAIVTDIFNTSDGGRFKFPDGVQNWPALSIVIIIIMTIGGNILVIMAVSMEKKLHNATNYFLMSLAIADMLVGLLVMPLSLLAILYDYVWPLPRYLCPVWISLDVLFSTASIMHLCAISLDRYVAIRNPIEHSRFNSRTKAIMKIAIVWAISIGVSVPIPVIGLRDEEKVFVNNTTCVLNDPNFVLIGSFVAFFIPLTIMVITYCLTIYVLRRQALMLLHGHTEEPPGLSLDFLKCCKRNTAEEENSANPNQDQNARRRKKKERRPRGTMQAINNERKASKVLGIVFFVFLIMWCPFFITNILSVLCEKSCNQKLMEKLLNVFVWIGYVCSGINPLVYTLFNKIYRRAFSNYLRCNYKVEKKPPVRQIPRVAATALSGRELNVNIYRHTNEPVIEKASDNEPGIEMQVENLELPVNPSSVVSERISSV
Description: PDSP Primary Binding target: HTR2C - Compounds are tested at 10 uM concentration, plate are incubated at room temperature in the dark for 90 minutes. Reaction are stopped by vacuum filtration onto 0.3% polyethyleneimine soaked filter mats using Filtermate harvester. Scintilation cocktail is then melted onto microwave-dried filters on a hot plate and the radio activity is counted in Microbia counter.

[15] = biological target: Histamine H3 receptor (Homo sapiens) (UniProt Q9Y5N1)
Description: PDSP Primary Binding target: HRH3 - Compounds are tested at 10 uM concentration, plate are incubated at room temperature in the dark for 90 minutes. Reaction are stopped by vacuum filtration onto 0.3% polyethyleneimine soaked filter mats using Filtermate harvester. Scintilation cocktail is then melted onto microwave-dried filters on a hot plate and the radio activity is counted in Microbia counter.

[16] = biological target: Sodium-dependent noradrenaline transporter (Homo sapiens) (UniProt P23975)
Description: PDSP Primary Binding target: SLC6A2 - Compounds are tested at 10 uM concentration, plate are incubated at room temperature in the dark for 90 minutes. Reaction are stopped by vacuum filtration onto 0.3% polyethyleneimine soaked filter mats using Filtermate harvester. Scintilation cocktail is then melted onto microwave-dried filters on a hot plate and the radio activity is counted in Microbia counter.

[17] = biological target: 5-hydroxytryptamine receptor 1B (Homo sapiens) (UniProt P28222)
Description: PDSP Primary Binding target: HTR1B - Compounds are tested at 10 uM concentration, plate are incubated at room temperature in the dark for 90 minutes. Reaction are stopped by vacuum filtration onto 0.3% polyethyleneimine soaked filter mats using Filtermate harvester. Scintilation cocktail is then melted onto microwave-dried filters on a hot plate and the radio activity is counted in Microbia counter.

[18] = biological target: T4, Muscarinic acetylcholine receptor M4 (Homo sapiens) (UniProt P08173)
T4 sequence (whole entry): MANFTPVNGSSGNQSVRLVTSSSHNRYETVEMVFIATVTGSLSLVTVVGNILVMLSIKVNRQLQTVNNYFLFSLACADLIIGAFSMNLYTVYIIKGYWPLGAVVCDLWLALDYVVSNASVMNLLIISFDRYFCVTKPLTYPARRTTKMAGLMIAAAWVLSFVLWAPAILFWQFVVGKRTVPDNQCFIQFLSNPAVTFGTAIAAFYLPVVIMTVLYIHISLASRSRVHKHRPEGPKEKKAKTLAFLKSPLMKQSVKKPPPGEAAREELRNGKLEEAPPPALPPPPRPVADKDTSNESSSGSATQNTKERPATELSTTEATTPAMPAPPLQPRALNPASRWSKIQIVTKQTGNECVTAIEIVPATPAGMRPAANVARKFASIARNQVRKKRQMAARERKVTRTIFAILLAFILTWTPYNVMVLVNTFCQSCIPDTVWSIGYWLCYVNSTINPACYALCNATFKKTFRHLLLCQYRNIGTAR
Description: PDSP Primary Binding target: CHRM4 - Compounds are tested at 10 uM concentration, plate are incubated at room temperature in the dark for 90 minutes. Reaction are stopped by vacuum filtration onto 0.3% polyethyleneimine soaked filter mats using Filtermate harvester. Scintilation cocktail is then melted onto microwave-dried filters on a hot plate and the radio activity is counted in Microbia counter.

[19] = biological target: D(3) dopamine receptor (Homo sapiens) (UniProt P35462)
D(3) dopamine receptor (Homo sapiens), sequence (P35462 whole entry): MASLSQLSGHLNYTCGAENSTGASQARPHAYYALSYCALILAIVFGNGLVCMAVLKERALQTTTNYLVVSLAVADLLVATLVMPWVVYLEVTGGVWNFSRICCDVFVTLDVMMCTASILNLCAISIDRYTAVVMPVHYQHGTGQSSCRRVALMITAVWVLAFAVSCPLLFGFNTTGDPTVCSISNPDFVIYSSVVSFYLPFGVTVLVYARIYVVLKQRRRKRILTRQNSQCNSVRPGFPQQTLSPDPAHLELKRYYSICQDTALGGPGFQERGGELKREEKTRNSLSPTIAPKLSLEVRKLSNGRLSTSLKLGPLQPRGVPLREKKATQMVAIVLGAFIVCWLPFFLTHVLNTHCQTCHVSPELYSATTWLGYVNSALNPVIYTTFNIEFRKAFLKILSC
Description: PDSP Primary Binding target: DRD3 - Compounds are tested at 10 uM concentration, plate are incubated at room temperature in the dark for 90 minutes. Reaction are stopped by vacuum filtration onto 0.3% polyethyleneimine soaked filter mats using Filtermate harvester. Scintilation cocktail is then melted onto microwave-dried filters on a hot plate and the radio activity is counted in Microbia counter.

D(2) dopamine receptor (Homo sapiens), sequence (P14416 whole entry): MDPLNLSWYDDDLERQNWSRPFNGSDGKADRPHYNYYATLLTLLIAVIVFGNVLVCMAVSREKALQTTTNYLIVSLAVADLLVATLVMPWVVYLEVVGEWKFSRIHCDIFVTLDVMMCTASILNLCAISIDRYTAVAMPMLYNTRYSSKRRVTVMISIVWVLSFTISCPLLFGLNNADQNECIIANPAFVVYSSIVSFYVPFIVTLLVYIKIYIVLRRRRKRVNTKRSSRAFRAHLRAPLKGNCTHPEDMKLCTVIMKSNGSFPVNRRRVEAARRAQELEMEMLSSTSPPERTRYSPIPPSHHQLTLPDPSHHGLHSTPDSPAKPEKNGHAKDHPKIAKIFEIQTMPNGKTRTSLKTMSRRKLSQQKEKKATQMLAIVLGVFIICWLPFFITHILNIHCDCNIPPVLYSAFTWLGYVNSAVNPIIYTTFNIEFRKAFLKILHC
Histamine H2 receptor (Homo sapiens), sequence (P25021 whole entry): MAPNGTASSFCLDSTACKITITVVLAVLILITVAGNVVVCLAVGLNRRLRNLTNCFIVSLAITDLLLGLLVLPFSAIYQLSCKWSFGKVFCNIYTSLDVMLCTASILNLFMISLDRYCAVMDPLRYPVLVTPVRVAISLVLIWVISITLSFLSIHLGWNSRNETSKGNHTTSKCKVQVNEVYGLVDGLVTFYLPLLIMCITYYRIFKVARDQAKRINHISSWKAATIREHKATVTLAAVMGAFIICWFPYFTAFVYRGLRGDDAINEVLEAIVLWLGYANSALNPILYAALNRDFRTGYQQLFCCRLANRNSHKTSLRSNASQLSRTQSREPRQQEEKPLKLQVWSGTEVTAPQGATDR
5-hydroxytryptamine receptor 2A (Homo sapiens), sequence (P28223 whole entry): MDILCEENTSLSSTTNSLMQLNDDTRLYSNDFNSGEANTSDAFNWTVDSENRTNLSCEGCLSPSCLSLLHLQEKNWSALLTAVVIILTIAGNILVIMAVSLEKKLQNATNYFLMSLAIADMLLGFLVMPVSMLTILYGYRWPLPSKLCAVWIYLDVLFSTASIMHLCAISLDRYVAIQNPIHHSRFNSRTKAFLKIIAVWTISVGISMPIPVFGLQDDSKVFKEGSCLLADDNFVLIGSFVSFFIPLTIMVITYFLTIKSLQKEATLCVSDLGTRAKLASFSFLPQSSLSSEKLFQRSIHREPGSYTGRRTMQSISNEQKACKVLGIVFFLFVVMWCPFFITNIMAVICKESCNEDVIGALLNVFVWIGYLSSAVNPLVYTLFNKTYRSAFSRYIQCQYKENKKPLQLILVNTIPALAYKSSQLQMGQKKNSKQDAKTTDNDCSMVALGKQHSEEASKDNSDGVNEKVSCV
Sodium-dependent noradrenaline transporter (Homo sapiens), sequence (P23975 whole entry): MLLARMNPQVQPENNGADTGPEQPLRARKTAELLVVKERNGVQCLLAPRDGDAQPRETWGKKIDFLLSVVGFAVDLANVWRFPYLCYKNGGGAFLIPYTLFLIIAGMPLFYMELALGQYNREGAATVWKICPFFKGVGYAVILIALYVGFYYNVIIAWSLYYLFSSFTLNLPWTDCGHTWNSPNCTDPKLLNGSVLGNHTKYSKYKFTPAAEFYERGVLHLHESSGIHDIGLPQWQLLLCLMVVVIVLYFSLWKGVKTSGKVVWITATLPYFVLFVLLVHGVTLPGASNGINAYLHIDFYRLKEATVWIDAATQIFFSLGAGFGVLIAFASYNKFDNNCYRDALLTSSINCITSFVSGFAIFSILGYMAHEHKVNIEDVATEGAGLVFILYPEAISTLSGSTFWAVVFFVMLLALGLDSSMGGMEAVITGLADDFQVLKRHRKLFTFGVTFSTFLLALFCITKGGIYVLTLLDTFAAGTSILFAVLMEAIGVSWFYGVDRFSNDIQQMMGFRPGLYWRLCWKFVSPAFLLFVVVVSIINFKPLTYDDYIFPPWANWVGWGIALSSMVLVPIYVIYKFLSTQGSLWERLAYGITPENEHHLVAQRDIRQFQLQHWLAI
5-hydroxytryptamine receptor 6 (Homo sapiens), sequence (P50406 whole entry): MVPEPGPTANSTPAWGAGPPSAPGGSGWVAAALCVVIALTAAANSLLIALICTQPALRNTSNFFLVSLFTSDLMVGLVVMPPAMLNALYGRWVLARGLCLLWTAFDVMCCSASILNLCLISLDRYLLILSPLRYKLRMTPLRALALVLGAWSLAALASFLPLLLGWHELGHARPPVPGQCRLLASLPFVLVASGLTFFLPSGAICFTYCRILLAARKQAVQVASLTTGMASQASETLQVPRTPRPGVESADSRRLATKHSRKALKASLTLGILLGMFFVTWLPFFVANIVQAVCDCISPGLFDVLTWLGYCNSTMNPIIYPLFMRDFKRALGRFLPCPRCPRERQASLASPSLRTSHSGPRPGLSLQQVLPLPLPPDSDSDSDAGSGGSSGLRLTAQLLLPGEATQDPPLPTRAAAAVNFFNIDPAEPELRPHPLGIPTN
Beta-3 adrenergic receptor (Homo sapiens), sequence (P13945 whole entry, looked up): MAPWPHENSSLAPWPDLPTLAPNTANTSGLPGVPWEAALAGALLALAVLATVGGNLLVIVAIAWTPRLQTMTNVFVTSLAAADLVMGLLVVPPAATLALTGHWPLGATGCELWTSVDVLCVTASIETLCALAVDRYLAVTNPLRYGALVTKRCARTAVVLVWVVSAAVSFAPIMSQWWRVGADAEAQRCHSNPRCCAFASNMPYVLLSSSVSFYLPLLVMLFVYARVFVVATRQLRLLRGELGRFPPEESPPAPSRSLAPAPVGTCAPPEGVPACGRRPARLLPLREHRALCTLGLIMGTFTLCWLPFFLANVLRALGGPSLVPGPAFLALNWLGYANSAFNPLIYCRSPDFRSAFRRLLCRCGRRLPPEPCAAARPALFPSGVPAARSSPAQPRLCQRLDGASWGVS
5-hydroxytryptamine receptor 2B (Homo sapiens), sequence (P41595 whole entry): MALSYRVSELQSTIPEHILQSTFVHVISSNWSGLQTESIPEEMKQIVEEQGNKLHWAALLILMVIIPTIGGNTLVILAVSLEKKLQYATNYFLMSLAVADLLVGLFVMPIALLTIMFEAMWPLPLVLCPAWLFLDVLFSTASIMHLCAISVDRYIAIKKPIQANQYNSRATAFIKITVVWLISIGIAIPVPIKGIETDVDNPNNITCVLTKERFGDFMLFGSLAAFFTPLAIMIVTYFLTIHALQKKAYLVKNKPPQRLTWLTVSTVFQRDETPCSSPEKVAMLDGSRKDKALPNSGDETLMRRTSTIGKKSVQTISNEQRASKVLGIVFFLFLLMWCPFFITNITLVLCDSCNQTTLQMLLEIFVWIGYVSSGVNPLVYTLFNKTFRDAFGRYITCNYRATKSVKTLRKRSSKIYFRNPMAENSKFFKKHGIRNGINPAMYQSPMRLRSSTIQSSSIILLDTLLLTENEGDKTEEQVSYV
Sodium-dependent dopamine transporter (Homo sapiens), sequence (Q01959 whole entry): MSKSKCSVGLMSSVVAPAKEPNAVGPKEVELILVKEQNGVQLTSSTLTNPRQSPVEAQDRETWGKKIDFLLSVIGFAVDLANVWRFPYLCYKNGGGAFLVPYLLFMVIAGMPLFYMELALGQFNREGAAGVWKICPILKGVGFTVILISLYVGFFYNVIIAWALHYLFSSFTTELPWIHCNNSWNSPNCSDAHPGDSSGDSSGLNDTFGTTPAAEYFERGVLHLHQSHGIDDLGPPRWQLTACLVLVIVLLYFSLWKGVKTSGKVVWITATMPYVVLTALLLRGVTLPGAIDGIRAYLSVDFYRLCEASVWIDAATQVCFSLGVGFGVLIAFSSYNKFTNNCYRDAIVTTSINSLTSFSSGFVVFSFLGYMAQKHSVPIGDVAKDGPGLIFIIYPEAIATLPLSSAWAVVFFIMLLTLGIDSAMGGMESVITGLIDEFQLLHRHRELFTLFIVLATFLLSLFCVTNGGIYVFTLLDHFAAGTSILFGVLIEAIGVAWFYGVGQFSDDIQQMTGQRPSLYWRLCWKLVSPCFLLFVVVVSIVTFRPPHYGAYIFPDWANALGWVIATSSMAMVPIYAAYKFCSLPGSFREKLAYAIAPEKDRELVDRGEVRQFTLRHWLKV
5-hydroxytryptamine receptor 1E (Homo sapiens), sequence (P28566 whole entry): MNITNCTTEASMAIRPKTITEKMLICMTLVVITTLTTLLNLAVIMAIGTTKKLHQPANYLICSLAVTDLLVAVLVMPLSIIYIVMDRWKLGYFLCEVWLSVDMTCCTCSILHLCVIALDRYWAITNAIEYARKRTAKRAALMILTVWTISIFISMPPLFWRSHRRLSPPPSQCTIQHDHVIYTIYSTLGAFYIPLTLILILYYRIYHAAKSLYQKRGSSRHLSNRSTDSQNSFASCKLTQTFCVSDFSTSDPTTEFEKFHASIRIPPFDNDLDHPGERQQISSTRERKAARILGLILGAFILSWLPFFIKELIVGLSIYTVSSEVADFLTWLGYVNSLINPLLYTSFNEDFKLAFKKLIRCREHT

## COC1CCN(c2cccc(-c3cc(NC(C)=O)nc(-n4nc(C)cc4C)n3)n2)CC1
[1]
  inhibition: -2.89%
[2]
  inhibition: 49.2%
[3]
  inhibition: 22.6%
[4]
  inhibition: 1.6%
[5]
  inhibition: 21.1%
[6]
  inhibition: 0.28%
[7]
  inhibition: 3.58%
[8]
  inhibition: 41.4%
[9]
  inhibition: 15.2%
[10]
  inhibition: 12.8%
[11]
  inhibition: 40.8%
[12]
  inhibition: 30.3%
[13]
  inhibition: 26%
[14]
  inhibition: 3.48%
[15]
  inhibition: 1.55%

## Cc1csc(NC(=O)c2cc(F)cc(Oc3cncnc3)c2)n1
[1]
  inhibition: 23.6%
[16]
  inhibition: 10.9%
[17]
  inhibition: -4.65%
[2]
  inhibition: 56.1%
[4]
  inhibition: 1.92%
[18]
  inhibition: -5.33%
[6]
  inhibition: 15.3%
[7]
  inhibition: 46%
[19]
  inhibition: 72%
[8]
  inhibition: -2.16%
[9]
  inhibition: -3.74%
[10]
  inhibition: 21%
[11]
  inhibition: 7.85%
[12]
  inhibition: 26.7%
[13]
  inhibition: 28.4%
[14]
  inhibition: 0.59%
[15]
  inhibition: 2.1%

## Cc1nnn(-c2ccc(-c3ccc(C4(C(=O)O)CC4)cc3)cc2)c1NC(=O)O[C@H](C)c1ccccc1
[16]
  inhibition: 2.8%
[17]
  inhibition: -3.56%
[2]
  inhibition: 35%
[3]
  inhibition: 24.9%
[4]
  inhibition: 2.49%
[7]
  inhibition: 43.6%
[19]
  inhibition: 34.8%
[8]
  inhibition: -7.78%
[9]
  inhibition: 1.32%
[10]
  inhibition: 25.4%
[11]
  inhibition: 37.4%
[12]
  inhibition: -0.33%
[13]
  inhibition: 4.74%
[15]
  inhibition: -3.65%

## COc1ccnc(N2CCC3(CCCN(Cc4c[nH]c5ccccc45)C3=O)CC2)n1
[16]
  inhibition: 16.6%
[2]
  inhibition: 44.7%
[3]
  inhibition: -5.97%
[4]
  inhibition: 7.53%
[18]
  inhibition: -7.79%
[6]
  inhibition: 8.03%
[7]
  inhibition: 20.4%
[19]
  inhibition: 28.5%
[9]
  inhibition: -3.29%
[10]
  inhibition: 7%
[11]
  inhibition: 19.4%
[12]
  inhibition: 23.6%
[13]
  inhibition: -7.83%
[14]
  inhibition: 0.97%
[15]
  inhibition: 0.7%

## Cc1c(C2=CCN(C(=O)N(C)C(C)C)CC2)nnn1-c1cccnc1F
[1]
  inhibition: 26.9%
[3]
  inhibition: 14.8%
[4]
  inhibition: 85.9%
[5]
  inhibition: 8.19%
[18]
  inhibition: -9.61%
[6]
  inhibition: -7.92%
[19]
  inhibition: -1.95%
[8]
  inhibition: -5.97%
[9]
  inhibition: 20.2%
[10]
  inhibition: 11.9%
[11]
  inhibition: 1.27%
[12]
  inhibition: 6.62%
[13]
  inhibition: 29.8%
[14]
  inhibition: -0.1%
[15]
  inhibition: -3.59%

From ChEMBL document CHEMBL5442219
